Measurements taken from PubChem BioAssay (NCI).
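The compound was tested at five concentrations on cells cultured in 96-well plates, with a 48-hour exposure period. Abbreviation: GI50, concentration required for 50% inhibition of growth. Definition used: TGI = concentration required for complete inhibition of growth.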

Experiments:
Test in all cases: inhibition of tumour cell growth, NCI panel, 48 h
UACC-257 melanoma = tested on: UACC-257 melanoma
SF-539 CNS = tested on: SF-539 CNS
SK-MEL-2 melanoma = tested on: SK-MEL-2 melanoma
SNB-75 CNS = tested on: SNB-75 CNS
HCT-15 colon = tested on: HCT-15 colon
SN12C renal = tested on: SN12C renal
RXF 393 renal = tested on: RXF 393 renal
UACC-62 melanoma = tested on: UACC-62 melanoma
OVCAR-5 ovarian = tested on: OVCAR-5 ovarian
HCC-2998 colon = tested on: HCC-2998 colon
NCI/ADR-RES ovarian = tested on: NCI/ADR-RES ovarian
SK-OV-3 ovarian = tested on: SK-OV-3 ovarian
SF-295 CNS = tested on: SF-295 CNS
MALME-3M melanoma = tested on: MALME-3M melanoma
TK-10 renal = tested on: TK-10 renal
MDA-MB-435 = tested on: MDA-MB-435
OVCAR-4 ovarian = tested on: OVCAR-4 ovarian
RPMI-8226 leukemia = tested on: RPMI-8226 leukemia
SK-MEL-28 melanoma = tested on: SK-MEL-28 melanoma
UO-31 renal = tested on: UO-31 renal
HS 578T breast = tested on: HS 578T breast
HT29 colon = tested on: HT29 colon
COLO 205 colon = tested on: COLO 205 colon
CCRF-CEM leukemia = tested on: CCRF-CEM leukemia
A498 renal = tested on: A498 renal
DU-145 prostate = tested on: DU-145 prostate
ACHN renal = tested on: ACHN renal
CAKI-1 renal = tested on: CAKI-1 renal
KM12 colon = tested on: KM12 colon
SK-MEL-5 melanoma = tested on: SK-MEL-5 melanoma
K-562 leukemia = tested on: K-562 leukemia
MDA-MB-231 breast = tested on: MDA-MB-231 breast
NCI-H226 lung = tested on: NCI-H226 lung
PC-3 prostate = tested on: PC-3 prostate
MOLT-4 leukemia = tested on: MOLT-4 leukemia
HL-60(TB) leukemia = tested on: HL-60(TB) leukemia
OVCAR-8 ovarian = tested on: OVCAR-8 ovarian
NCI-H23 lung = tested on: NCI-H23 lung
HOP-92 NSCLC = tested on: HOP-92 NSCLC
EKVX NSCLC = tested on: EKVX NSCLC
U251 CNS = tested on: U251 CNS
LOX IMVI melanoma = tested on: LOX IMVI melanoma
HCT-116 colon = tested on: HCT-116 colon
A549 NSCLC = tested on: A549 NSCLC
786-0 renal = tested on: 786-0 renal
NCI-H522 lung = tested on: NCI-H522 lung
HOP-62 NSCLC = tested on: HOP-62 NSCLC
SR leukemia = tested on: SR leukemia
NCI-H460 lung = tested on: NCI-H460 lung
BT-549 breast = tested on: BT-549 breast
SW-620 colon = tested on: SW-620 colon
T-47D breast = tested on: T-47D breast
SF-268 CNS = tested on: SF-268 CNS
SNB-19 CNS = tested on: SNB-19 CNS
M14 melanoma = tested on: M14 melanoma
IGROV1 ovarian = tested on: IGROV1 ovarian

Compound `Nc1cc(-c2c[nH]c3ccc(Br)cc23)nc2cc(-c3c[nH]c4ccc(Br)cc34)nn12` has a GI50 (UACC-257 melanoma) of 1630 nM, a TGI (UACC-257 melanoma) of 3200 nM and a GI50 (SF-539 CNS) of 1460 nM. For the same compound, the TGI (SF-539 CNS) was 2920 nM, the GI50 (SK-MEL-2 melanoma) was 1670 nM and the TGI (SK-MEL-2 melanoma) was 3270 nM. The GI50 (SNB-75 CNS) was 1170 nM, the TGI (SNB-75 CNS) was 3770 nM and the GI50 (HCT-15 colon) was 1360 nM. For the same compound, the TGI (HCT-15 colon) was 3180 nM, the GI50 (SN12C renal) was 1840 nM and the TGI (SN12C renal) was 3640 nM. It also gave a GI50 (RXF 393 renal) of 1830 nM, a TGI (RXF 393 renal) of 3540 nM and a GI50 (UACC-62 melanoma) of 1480 nM. The TGI (UACC-62 melanoma) was 3050 nM, the GI50 (OVCAR-5 ovarian) was 1530 nM and the TGI (OVCAR-5 ovarian) was 3110 nM. The GI50 (HCC-2998 colon) was 1800 nM, the TGI (HCC-2998 colon) was 3340 nM and the GI50 (NCI/ADR-RES ovarian) was 2500 nM. The TGI (NCI/ADR-RES ovarian) was 6140 nM, the GI50 (SK-OV-3 ovarian) was 1710 nM and the TGI (SK-OV-3 ovarian) was 3440 nM. The GI50 (SF-295 CNS) was 1890 nM, the TGI (SF-295 CNS) was 3570 nM and the GI50 (MALME-3M melanoma) was 1930 nM. It also gave a TGI (MALME-3M melanoma) of 4080 nM, a GI50 (TK-10 renal) of 1800 nM and a TGI (TK-10 renal) of 3390 nM. It also gave a GI50 (MDA-MB-435) of 1710 nM, a TGI (MDA-MB-435) of 3250 nM and a GI50 (OVCAR-4 ovarian) of 2030 nM. It also gave a TGI (OVCAR-4 ovarian) of 5250 nM, a GI50 (RPMI-8226 leukemia) of 3170 nM and a TGI (RPMI-8226 leukemia) of over 100000 nM. The GI50 (SK-MEL-28 melanoma) was 1620 nM, the TGI (SK-MEL-28 melanoma) was 3080 nM and the GI50 (UO-31 renal) was 1470 nM. It also gave a TGI (UO-31 renal) of 2790 nM, a GI50 (HS 578T breast) of 2300 nM and a TGI (HS 578T breast) of 7540 nM. The GI50 (HT29 colon) was 1710 nM, the TGI (HT29 colon) was 3150 nM and the GI50 (COLO 205 colon) was 1760 nM. For the same compound, the TGI (COLO 205 colon) was 3230 nM, the GI50 (CCRF-CEM leukemia) was 3210 nM and the TGI (CCRF-CEM leukemia) was over 100000 nM. The GI50 (A498 renal) was 1570 nM, the TGI (A498 renal) was 4070 nM and the GI50 (DU-145 prostate) was 1720 nM. The TGI (DU-145 prostate) was 3230 nM, the GI50 (ACHN renal) was 1560 nM and the TGI (ACHN renal) was 2960 nM. It also gave a GI50 (CAKI-1 renal) of 1430 nM, a TGI (CAKI-1 renal) of 3150 nM and a GI50 (KM12 colon) of 1480 nM. The TGI (KM12 colon) was 2960 nM, the GI50 (SK-MEL-5 melanoma) was 1700 nM and the TGI (SK-MEL-5 melanoma) was 3180 nM. For the same compound, the GI50 (K-562 leukemia) was 2810 nM, the TGI (K-562 leukemia) was over 100000 nM and the GI50 (MDA-MB-231 breast) was 1890 nM. The TGI (MDA-MB-231 breast) was 3790 nM, the GI50 (NCI-H226 lung) was 2140 nM and the TGI (NCI-H226 lung) was 6110 nM.

`CCOc1ccccc1NC1=C(Cl)C(=O)c2nc(C)ccc2C1=O` gave a GI50 (UACC-257 melanoma) of 1280 nM, a TGI (UACC-257 melanoma) of 2610 nM and a GI50 (SF-539 CNS) of 1670 nM. For the same compound, the TGI (SF-539 CNS) was 3090 nM, the GI50 (PC-3 prostate) was 1260 nM and the TGI (PC-3 prostate) was 2770 nM. The GI50 (SK-MEL-2 melanoma) was 1440 nM, the TGI (SK-MEL-2 melanoma) was 2860 nM and the GI50 (SNB-75 CNS) was 1630 nM. For the same compound, the TGI (SNB-75 CNS) was 3430 nM, the GI50 (MOLT-4 leukemia) was 2030 nM and the TGI (MOLT-4 leukemia) was 8090 nM. For the same compound, the GI50 (HCT-15 colon) was 1130 nM, the TGI (HCT-15 colon) was 2550 nM and the GI50 (SN12C renal) was 1590 nM. The TGI (SN12C renal) was 3040 nM, the GI50 (HL-60(TB) leukemia) was 1030 nM and the TGI (HL-60(TB) leukemia) was 2920 nM. It also gave a GI50 (RXF 393 renal) of 1440 nM, a TGI (RXF 393 renal) of 2780 nM and a GI50 (UACC-62 melanoma) of 1800 nM. The TGI (UACC-62 melanoma) was 3360 nM, the GI50 (OVCAR-5 ovarian) was 1840 nM and the TGI (OVCAR-5 ovarian) was 3330 nM. The GI50 (OVCAR-8 ovarian) was 1490 nM, the TGI (OVCAR-8 ovarian) was 2920 nM and the GI50 (NCI-H23 lung) was 1440 nM. The TGI (NCI-H23 lung) was 3550 nM, the GI50 (HOP-92 NSCLC) was 1800 nM and the TGI (HOP-92 NSCLC) was 3330 nM. The GI50 (HCC-2998 colon) was 1940 nM, the TGI (HCC-2998 colon) was 3520 nM and the GI50 (EKVX NSCLC) was 1560 nM. It also gave a TGI (EKVX NSCLC) of 2980 nM, a GI50 (NCI/ADR-RES ovarian) of 1890 nM and a TGI (NCI/ADR-RES ovarian) of 5090 nM. It also gave a GI50 (U251 CNS) of 1700 nM, a TGI (U251 CNS) of 3270 nM and a GI50 (SK-OV-3 ovarian) of 13500 nM. It also gave a TGI (SK-OV-3 ovarian) of 27100 nM, a GI50 (SF-295 CNS) of 2030 nM and a TGI (SF-295 CNS) of 4200 nM. For the same compound, the GI50 (MALME-3M melanoma) was 1360 nM, the TGI (MALME-3M melanoma) was 2770 nM and the GI50 (TK-10 renal) was 2250 nM. The TGI (TK-10 renal) was 3720 nM, the GI50 (MDA-MB-435) was 266 nM and the TGI (MDA-MB-435) was 671 nM. It also gave a GI50 (OVCAR-4 ovarian) of 1000 nM, a TGI (OVCAR-4 ovarian) of 2220 nM and a GI50 (RPMI-8226 leukemia) of 1200 nM. It also gave a TGI (RPMI-8226 leukemia) of 4710 nM, a GI50 (LOX IMVI melanoma) of 839 nM and a TGI (LOX IMVI melanoma) of 2220 nM. It also gave a GI50 (SK-MEL-28 melanoma) of 1710 nM, a TGI (SK-MEL-28 melanoma) of 3140 nM and a GI50 (HCT-116 colon) of 1050 nM. The TGI (HCT-116 colon) was 2310 nM, the GI50 (A549 NSCLC) was 2060 nM and the TGI (A549 NSCLC) was 4650 nM. For the same compound, the GI50 (786-0 renal) was 1800 nM, the TGI (786-0 renal) was 3250 nM and the GI50 (UO-31 renal) was 1400 nM. For the same compound, the TGI (UO-31 renal) was 2710 nM, the GI50 (NCI-H522 lung) was 1740 nM and the TGI (NCI-H522 lung) was 3280 nM. For the same compound, the GI50 (HOP-62 NSCLC) was 2270 nM, the TGI (HOP-62 NSCLC) was 6740 nM and the GI50 (SR leukemia) was 543 nM. It also gave a TGI (SR leukemia) of 4140 nM, a GI50 (HS 578T breast) of 2110 nM and a TGI (HS 578T breast) of 5250 nM. For the same compound, the GI50 (HT29 colon) was 3400 nM, the TGI (HT29 colon) was 15200 nM and the GI50 (COLO 205 colon) was 1730 nM. It also gave a TGI (COLO 205 colon) of 3660 nM, a GI50 (NCI-H460 lung) of 3020 nM and a TGI (NCI-H460 lung) of 11400 nM. It also gave a GI50 (CCRF-CEM leukemia) of 1410 nM, a TGI (CCRF-CEM leukemia) of over 100000 nM and a GI50 (BT-549 breast) of 1520 nM. For the same compound, the TGI (BT-549 breast) was 2880 nM, the GI50 (A498 renal) was 2650 nM and the TGI (A498 renal) was 10800 nM. It also gave a GI50 (DU-145 prostate) of 1630 nM, a TGI (DU-145 prostate) of 2990 nM and a GI50 (SW-620 colon) of 1600 nM. The TGI (SW-620 colon) was 3210 nM, the GI50 (ACHN renal) was 1350 nM and the TGI (ACHN renal) was 2690 nM. For the same compound, the GI50 (T-47D breast) was 467 nM, the TGI (T-47D breast) was 3170 nM and the GI50 (SF-268 CNS) was 1470 nM. For the same compound, the TGI (SF-268 CNS) was 2940 nM, the GI50 (CAKI-1 renal) was 1450 nM and the TGI (CAKI-1 renal) was 2840 nM. It also gave a GI50 (SNB-19 CNS) of 1800 nM, a TGI (SNB-19 CNS) of 3970 nM and a GI50 (M14 melanoma) of 1460 nM. The TGI (M14 melanoma) was 2830 nM, the GI50 (KM12 colon) was 1410 nM and the TGI (KM12 colon) was 2890 nM. For the same compound, the GI50 (SK-MEL-5 melanoma) was 1740 nM, the TGI (SK-MEL-5 melanoma) was 3130 nM and the GI50 (MDA-MB-231 breast) was 1070 nM. For the same compound, the TGI (MDA-MB-231 breast) was 2380 nM, the GI50 (IGROV1 ovarian) was 1370 nM and the TGI (IGROV1 ovarian) was 2820 nM. For the same compound, the GI50 (NCI-H226 lung) was 1780 nM and the TGI (NCI-H226 lung) was 4240 nM.
